Results from patent US5106976A, “Fused pyrazine sulfoxide derivatives for use as antiulcer agents” (Nippon Chemiphar Co., Ltd., priority 1986, dated 1992).
Like-named read-outs stand apart in the source and are kept apart here. One block for each compound: values may come before it.

Experiments:
[1] = target: T1, H^+ +K^+ ATPase (Oryctolagus cuniculus, UniProt P27112); assay: H+ + K+ ATPase inhibitory effect (vesicles from rabbit gastric mucosa cells); format: biochemical; details: 2×10^-4 M test compound, 25 min room temperature preincubation at pH 6.0; reaction pH 7.4, 37° C., 15 min
T1 construct: gastric acid secretory cells of a rabbit gastric mucosa were isolated and vesicle containing H^+ +K^+ ATPase was prepared; from tissue; host or cells: rabbit gastric mucosa, acid secretory cells; vesicles by Ficoll discontinuous density gradient
T1 sequence (P27112 whole entry): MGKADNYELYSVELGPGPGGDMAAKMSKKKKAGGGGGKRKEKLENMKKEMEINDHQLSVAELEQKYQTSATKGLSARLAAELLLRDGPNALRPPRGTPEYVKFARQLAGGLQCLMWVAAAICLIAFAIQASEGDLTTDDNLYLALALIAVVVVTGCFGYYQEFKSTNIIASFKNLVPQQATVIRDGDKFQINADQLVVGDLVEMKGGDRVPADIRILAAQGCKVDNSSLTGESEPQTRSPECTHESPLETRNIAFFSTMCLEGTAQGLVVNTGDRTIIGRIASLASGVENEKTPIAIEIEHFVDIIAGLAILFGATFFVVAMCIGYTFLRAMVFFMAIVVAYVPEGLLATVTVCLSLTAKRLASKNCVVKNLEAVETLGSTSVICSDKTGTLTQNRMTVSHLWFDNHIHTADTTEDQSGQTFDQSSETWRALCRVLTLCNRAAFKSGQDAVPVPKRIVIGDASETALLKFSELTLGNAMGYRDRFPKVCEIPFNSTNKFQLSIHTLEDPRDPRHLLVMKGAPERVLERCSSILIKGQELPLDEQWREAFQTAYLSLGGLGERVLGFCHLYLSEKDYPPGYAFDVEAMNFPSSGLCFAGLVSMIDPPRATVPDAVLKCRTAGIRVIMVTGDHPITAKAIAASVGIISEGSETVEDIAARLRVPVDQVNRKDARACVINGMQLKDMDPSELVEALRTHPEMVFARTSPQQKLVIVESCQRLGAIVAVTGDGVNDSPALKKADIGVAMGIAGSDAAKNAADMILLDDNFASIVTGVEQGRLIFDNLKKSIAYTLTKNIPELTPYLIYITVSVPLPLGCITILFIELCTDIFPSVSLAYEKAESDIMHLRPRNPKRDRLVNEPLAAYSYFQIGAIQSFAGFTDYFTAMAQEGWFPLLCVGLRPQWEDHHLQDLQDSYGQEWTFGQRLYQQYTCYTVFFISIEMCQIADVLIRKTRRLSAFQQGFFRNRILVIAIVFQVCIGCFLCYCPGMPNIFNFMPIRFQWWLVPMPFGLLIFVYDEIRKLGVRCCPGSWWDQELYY
T1 sequence (P18597 whole entry partner): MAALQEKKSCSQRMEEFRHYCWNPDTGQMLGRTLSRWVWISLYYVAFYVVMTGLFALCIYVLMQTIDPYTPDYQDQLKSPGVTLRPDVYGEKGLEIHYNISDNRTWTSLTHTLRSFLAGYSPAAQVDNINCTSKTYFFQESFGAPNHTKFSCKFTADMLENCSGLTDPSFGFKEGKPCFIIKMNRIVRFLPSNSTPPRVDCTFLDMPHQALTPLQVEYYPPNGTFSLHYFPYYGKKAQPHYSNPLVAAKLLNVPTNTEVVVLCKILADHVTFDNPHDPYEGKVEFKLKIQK
Experimental: Following the method of Forte et al [J. Applied Physiol., 32, 714-717 (1972)], gastric acid secretory cells of a rabbit gastric mucosa were isolated and vesicle containing H^+ +K^+ ATPase was prepared by centrifuging the cells in Ficoll of discontinuous density gradient. After the enzyme was incubated at room temperature for 25 min. in 0.5 ml of a solution which contained 5 mM of an imidazole buffer (pH 6.0) and 2×10^-4 M of each test compound, the mixture was heated to 37° C. at which it was allowed to stand for further 5 min. To the mixture was added 0.5 ml of a solution which contained 4 mM of magnesium chloride, 80 mM of an imidazole buffer (pH 7.4), 20 mM of potassium chloride and 4 mM of ATP. The resulting mixture was caused to react at 37° C. for 15 min., and 1 ml of a 24% solution of trichloroacetic acid was then added to terminate the reaction. The inorganic phosphorus liberated was quantitatively analyzed by the method proposed by Taussky and Shorr [J. Biol. Chem., 202, 675- 685 (1953)]. The K^+ -dependent activity of the ATPase was determined by subtracting its activity obtained when no potassium chloride was contained. The results are set forth in Table 1 in which Compound Nos. 1-7 are the sulfoxide derivatives prepared in the hereinafter-described Examples 1-7, respectively.

[2] = tested on: secretion of gastric acid; assay: Inhibitory action against secretion of gastric acid (pylorus-ligated rats, Shay method); format: in vivo, male Donryu rats; details: read-out: Suppressive action against secretion of gastric acid
Experimental: Under ether anesthesia, the pylorus of the rat was ligated and each test compound was administered intraduodenally. Four hours later, each rat was killed and the stomach was removed to collect the gastric juice. The inhibitory action was determined by comparing the acid output which was obtained by titration to pH 7.0 with 0.1-N NaOH by means of an automatic titrator, with the corresponding value of a control rat prepared in the same manner except that a vehicle alone was administered.

[3] = Water-immersion stress-induced erosions (gastric lesion model); format: in vivo, male Donryu rats; details: rat, 10 minutes before stressing, 7 hours immersion
Experimental: Two different types of gastric lesion models were induced in male Donryu rats (180 to 240 g) which had been deprived of food but allowed free acess to water for 24 to 48 hours prior to experiments. Rats fasted for 24 hours before experiments were placed in a restraint cage. The animals were immersed vertically to the level of the xiphoid process in a water bath (21° C.) for 7 hours and then killed. The stomach of each rat was removed and inflated by injecting 10 ml of 1% formalin to fix the inner and outer layers of the gastric walls. This formalin treatment was performed in all of the following experiments. Subsequently, the stomach was incised along a greater curvature and examined for any erosion in the glandular portion. Each test compound or a vehicle alone was given orally 10 minutes before stressing.

[4] = HCl-ethanol-induced erosions (gastric lesion model); format: in vivo, male Donryu rats; details: rat, 30 minutes before ethanol treatment
Experimental: Two different types of gastric lesion models were induced in male Donryu rats (180 to 240 g) which had been deprived of food but allowed free acess to water for 24 to 48 hours prior to experiments.
A hydrochloric acid-ethanol solution (150 mM HCl in 60% ethanol) was given orally to rats in a dose of 1 ml/200 g, which rats had been fasted for 24 hours before experiments. One hour later, each animal was killed and the stomach was examined for any erosion in the glandular portion. Each test compound or a vehicle alone was given orally 30 minutes before ethanol treatment.

[5] = 100 mg/kg intraduodenal, rat, 4 hours
[6] = Rattus norvegicus, intraduodenal, 4 h

inhibition at 200 µM [1]: 100%
Compound: CN(C)c1ccccc1C[S+]([O-])c1cnc2ccccc2n1 (stereo not shown) [Compound No. 5, 2-(2-dimethylaminobenzylsulfinyl)quinoxaline]
inhibition in vivo at 100 mg/kg [2, 5]: 55.1%

inhibition at 200 µM [1]: 80.8%
Compound: Cc1cc2nc(C)c([S+]([O-])Cc3ccccc3N(C)C)nc2cc1C (stereo not shown) [Compound No. 7, 2-(2-dimethylaminobenzylsulfinyl)-3,6,7-trimethylquinoxaline]
inhibition in vivo at 100 mg/kg [2, 5]: 46.9%

inhibition at 200 µM [1]: 100%
Compound: Cc1nc2ccccc2nc1[S+]([O-])Cc1ccccc1N(C)C (stereo not shown) [Compound No. 6, 2-(2-dimethylaminobenzylsulfinyl)-3-methylquinoxaline]
inhibition in vivo at 100 mg/kg [2, 5]: 89.6%

The remaining lines, values behind:

Compound: CN(C)c1ccccc1C[S+]([O-])c1nc2ncccc2[nH]1 (stereo not shown) [Compound No. 1, 2-(2-dimethylaminobenzylsulfinyl)imidazo[4,5-b]pyridine]
inhibition at 200 µM [1]: 92.3%
inhibition in vivo at 10 mg/kg ([2]; 10 mg/kg intraduodenal, rat, 4 hours): 53%
inhibition in vivo at 30 mg/kg ([2]; 30 mg/kg intraduodenal, rat, 4 hours): 79%
inhibition in vivo at 100 mg/kg [2, 5]: 95.1%
Inhibition on Water-Immersion stress-induced erosions ([3]; 30 mg/kg oral): 66%
Inhibition on Water-Immersion stress-induced erosions ([3]; 100 mg/kg oral): 87%
Inhibition on HCl--Ethanol-induced Erosions ([4]; 10 mg/kg oral): 37%
Inhibition on HCl--Ethanol-induced Erosions ([4]; 30 mg/kg oral): 97%

Compound: CNC(=NCCSCc1nc[nH]c1C)NC#N [Cimetidine, N-cyano-N'-methyl-N"-[2-[[(5-methyl-1H-imidazol-4-yl)methyl]thio]-ethyl]guanidine, reference compound]
inhibition in vivo at 10 mg/kg [2, 6]: 25.3%
inhibition in vivo at 30 mg/kg [2, 6]: 59.1%
inhibition in vivo at 100 mg/kg [2, 6]: 80.3%
Inhibition on Water-Immersion stress-induced erosions ([3]; 60 mg/kg oral): 49%
Inhibition on Water-Immersion stress-induced erosions ([3]; 200 mg/kg oral): 87%

Compound: Cc1nc2ccccc2nc1[S+]([O-])Cc1ccccn1 (stereo not shown) [Compound No. 3, 3-methyl-2-(2-pyridylmethylsulfinyl)quinoxaline]
inhibition at 200 µM [1]: 99.5%
inhibition in vivo at 100 mg/kg [2, 5]: 54.7%

Compound: Cc1nc2cccnc2nc1[S+]([O-])Cc1ccccn1 (stereo not shown) [Compound No. 4, 2-methyl-3-(2-pyridylmethylsulfinyl)pyrido[2,3-b]pyrazine]
inhibition at 200 µM [1]: 89.4%
inhibition in vivo at 100 mg/kg [2, 5]: 96.7%

Compound: [O-][S+](Cc1ccccn1)c1cnc2ccccc2n1 (stereo not shown) [Compound No. 2, 2-(2-pyridylmethylsulfinyl)quinoxaline]
inhibition at 200 µM [1]: 96.8%
inhibition in vivo at 100 mg/kg [2, 5]: 54.8%
